Consider 17 compounds from US9951064B2, “Azaindazole compounds as inhibitors of T790M containing EGFR mutants” (Genentech, Inc., priority 2013, dated 2018).

The target of test [1] is T1, phosphor-EGFR in H1975(L585R/T790M) mutant EGFR expressing cells (Homo sapiens, UniProt P00533, L858R/T790M).
T1 construct: host or cells: NCI-H1975
The experiment in a line: H1975 pEGFR MSD cellular assay. It counts as cell-based. Conditions: NCI-H1975 cells, serum starved, 1 hour compound incubation, pEGFR Tyr1068 MSD; read-out: HI975 pEGFR EC50. Summed up:
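NCI-H1975 cells, 30,000/well, serum-starved overnight, then treated 1 hour at 37° C with serially diluted compounds in serum-free medium (0.5% DMSO). Lysates captured on anti-phospho-EGFR plates overnight at 4° C, detected with SULFO-TAG anti-total EGFR by electrochemiluminescence. Inhibition vs untreated controls; EC50 from 4-parameter logistic fit.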

The subject of test [2] is H1975 (EGFR T790M/L858R) cell proliferation. The experiment in a line: H1975 proliferation assay (Cell Titer-Glo). The settings on record: Homo sapiens, NCI-H1975, 72 h, NCI-H1975 cells, 72 hour incubation, read-out: H1975 antiproliferative EC50. It counts as cell-based. The procedure:
H1975 Proliferation Assays
All cell culture reagents were purchased from Invitrogen/Gibco. Cells are cultured at 37° C. at 5% CO2 and split as recommended by ATCC.
In general terms: Cellular ATP, detected with luciferase, serves as a proxy for viable cell number.

In a further test the target is T2, EGFR T790M L858R (Homo sapiens, UniProt P00533, L858R/T790M).
T2 construct: purchased Life Technologies PV4879
The experiment in a line: EGFR T790M L858R biochemical assay (Caliper mobility shift). Conditions: 5 μM ATP; apparent Ki (Morrison fit) converted by Cheng-Prusoff, Km of ATP 1.3 μM. Summed up: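 Reactions run 30 minutes at room temperature (22 °C), stopped with 80 mM EDTA. Phosphorylated product and substrate separated electrophoretically and quantified by Caliper mobility shift.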

A further test addresses T3, EGFR del746-750 T790M (Homo sapiens, UniProt P00533, DEL746-750/T790M).
T3 construct: purchased Carna Biosciences 08-528
The test can be described thus: EGFR del746-750 T790M biochemical assay (Caliper mobility shift). The settings on record: 5 μM ATP; apparent Ki (Morrison fit) converted by Cheng-Prusoff, Km of ATP 2.1 μM; read-out: EGFR(T790M/d746-750) Ki. Put shortly:
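Kinase reactions ran 30 min at room temperature (22 °C), then were stopped with 80 mM EDTA. Phosphorylated product and substrate were separated electrophoretically and quantified by Caliper mobility shift.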

T3 sequence (P00533 with tags, fused parts or gaps DEL746-750/T790M limits assumed): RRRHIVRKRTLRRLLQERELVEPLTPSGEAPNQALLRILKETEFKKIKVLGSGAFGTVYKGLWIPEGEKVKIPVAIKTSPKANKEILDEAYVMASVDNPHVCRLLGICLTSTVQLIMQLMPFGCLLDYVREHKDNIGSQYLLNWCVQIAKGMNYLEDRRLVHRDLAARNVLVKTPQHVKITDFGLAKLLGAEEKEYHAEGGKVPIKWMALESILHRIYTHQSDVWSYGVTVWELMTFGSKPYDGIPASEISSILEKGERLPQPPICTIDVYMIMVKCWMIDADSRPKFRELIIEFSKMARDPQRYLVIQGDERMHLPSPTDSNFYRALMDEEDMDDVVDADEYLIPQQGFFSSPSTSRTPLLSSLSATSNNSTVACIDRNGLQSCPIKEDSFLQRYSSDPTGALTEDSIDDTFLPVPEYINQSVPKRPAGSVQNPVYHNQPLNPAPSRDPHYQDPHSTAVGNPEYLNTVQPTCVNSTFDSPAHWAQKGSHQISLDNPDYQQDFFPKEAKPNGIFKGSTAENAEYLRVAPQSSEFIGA
T2 sequence (P00533 25-1210 T790M/L858R): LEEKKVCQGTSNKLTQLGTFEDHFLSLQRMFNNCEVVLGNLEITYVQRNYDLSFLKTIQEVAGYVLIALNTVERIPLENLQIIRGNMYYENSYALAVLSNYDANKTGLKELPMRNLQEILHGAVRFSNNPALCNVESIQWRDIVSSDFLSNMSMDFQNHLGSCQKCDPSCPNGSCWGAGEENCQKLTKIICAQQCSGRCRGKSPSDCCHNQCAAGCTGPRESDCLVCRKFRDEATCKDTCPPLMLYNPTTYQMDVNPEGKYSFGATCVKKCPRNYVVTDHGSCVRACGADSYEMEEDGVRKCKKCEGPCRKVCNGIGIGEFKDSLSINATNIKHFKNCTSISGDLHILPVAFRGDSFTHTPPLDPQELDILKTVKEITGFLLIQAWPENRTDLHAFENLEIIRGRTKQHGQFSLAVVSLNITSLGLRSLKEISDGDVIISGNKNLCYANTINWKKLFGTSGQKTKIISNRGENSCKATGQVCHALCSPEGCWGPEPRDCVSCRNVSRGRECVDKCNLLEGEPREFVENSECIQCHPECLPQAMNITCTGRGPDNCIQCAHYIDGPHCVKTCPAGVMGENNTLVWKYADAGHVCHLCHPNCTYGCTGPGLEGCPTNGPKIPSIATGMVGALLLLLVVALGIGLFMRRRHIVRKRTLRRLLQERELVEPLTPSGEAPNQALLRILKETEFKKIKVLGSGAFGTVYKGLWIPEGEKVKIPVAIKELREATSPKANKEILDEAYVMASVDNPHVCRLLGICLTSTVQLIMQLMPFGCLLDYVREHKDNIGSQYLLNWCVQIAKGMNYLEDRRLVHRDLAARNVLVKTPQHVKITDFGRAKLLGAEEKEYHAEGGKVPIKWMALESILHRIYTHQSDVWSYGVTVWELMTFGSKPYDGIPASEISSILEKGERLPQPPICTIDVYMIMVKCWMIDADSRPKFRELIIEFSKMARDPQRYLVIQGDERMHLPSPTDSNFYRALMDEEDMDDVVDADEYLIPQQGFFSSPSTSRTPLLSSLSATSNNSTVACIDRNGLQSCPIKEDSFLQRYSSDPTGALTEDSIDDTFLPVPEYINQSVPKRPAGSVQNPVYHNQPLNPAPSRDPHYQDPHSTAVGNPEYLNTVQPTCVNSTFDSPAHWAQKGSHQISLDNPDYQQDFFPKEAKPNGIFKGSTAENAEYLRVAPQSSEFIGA
T1 sequence (P00533 25-1210 T790M/L858R): as above

What is called EC50 is the concentration needed to bring the measured effect to its halfway point. For `CCC(C)n1nc(N2CC[C@@H](C(N)=O)C2)c2cnc(Nc3ccnc(N4CCC(C)(O)CC4)n3)cc21` (stereo partly drawn) [Example 145, (3R)-1-(1-sec-Butyl-6-(2-(4-hydroxy-4-methylpiperidin-1-yl)pyrimidin-4-ylamino)-1H-pyrazolo[4,3-c]pyridin-3-yl)pyrrolidine-3-carboxamide], the results for the EC50 in test [1] and in test [2] were 921 nM and 7170 nM, respectively. Further, the Ki at EGFR T790M L858R was 1.4 nM; on EGFR del746-750 T790M, 1.6 nM.

With `CCC(C)n1nc(N2CC(F)(F)C2)c2cnc(Nc3ccnc(N4CCC(C)(O)CC4)n3)cc21` (centres unmarked) [Example 146, 1-(4-(1-sec-Butyl-3-(3,3-difluoroazetidin-1-yl)-1H-pyrazolo[4,3-c]pyridin-6-ylamino)pyrimidin-2-yl)-4-methylpiperidin-4-ol], the results for the EC50 in test [1] and in test [2] were 277 nM and 1600 nM, respectively. Moreover, the Ki at EGFR T790M L858R is 2.5 nM; on EGFR del746-750 T790M it was 4.9 nM.

For `CC(C)n1nc(N2CC(C(C)(C)O)C2)c2cnc(Nc3ccnc(-c4cnn(S(=O)(=O)C5CC5)c4)n3)cc21` [Example 149, 2-(1-(6-(2-(1-(Cyclopropylsulfonyl)-1H-pyrazol-4-yl)pyrimidin-4-ylamino)-1-isopropyl-1H-pyrazolo[4,3-c]pyridin-3-yl)azetidin-3-yl)propan-2-ol], the EC50 in test [1] was 51.9 nM; in test [2], 423 nM. Moreover, the Ki on EGFR T790M L858R was 2.1 nM; at EGFR del746-750 T790M, 1.2 nM.

As to `CC(C)n1nc(N2CCCNC2=O)c2cnc(Nc3ccnc(-c4cnn(S(=O)(=O)C5CC5)c4)n3)cc21` [Example 150, 3-(6-(2-(1-(Cyclopropylsulfonyl)-1H-pyrazol-4-yl)pyrimidin-4-ylamino)-1-isopropyl-1H-pyrazolo[4,3-c]pyridin-3-yl)-tetrahydropyrimidin-2(1H)-one], the EC50 in test [1] is 244 nM; in test [2], 765 nM. The Ki came out at 4.9 nM on EGFR T790M L858R and 3.6 nM on EGFR del746-750 T790M.

`CCN1CCN(c2nn(C(C)C)c3cc(Nc4ccnc(-c5cnn(S(=O)(=O)C6CC6)c5)n4)ncc23)C1=O` [Example 151, 1-(6-(2-(1-(Cyclopropylsulfonyl)-1H-pyrazol-4-yl)pyrimidin-4-ylamino)-1-isopropyl-1H-pyrazolo[4,3-c]pyridin-3-yl)-3-ethylimidazolidin-2-one]: the EC50 was found to be 363 nM in test [1] and 929 nM in test [2]. Further, the results for the Ki on EGFR T790M L858R and on EGFR del746-750 T790M were 8.7 nM and 6.3 nM, respectively.

With `CC(C)n1nc(N2CC(C(C)(C)C#N)C2)c2cnc(Nc3ccnc(-c4cnn(S(=O)(=O)C5CC5)c4)n3)cc21` [Example 153, 2-(1-(6-(2-(1-(Cyclopropylsulfonyl)-1H-pyrazol-4-yl)pyrimidin-4-ylamino)-1-isopropyl-1H-pyrazolo[4,3-c]pyridin-3-yl)azetidin-3-yl)-2-methylpropanenitrile], the EC50 in test [1] is 133 nM; in test [2] it was 1380 nM. Further, the Ki at EGFR T790M L858R worked out at 2.1 nM; on EGFR del746-750 T790M, 1.9 nM.

In the case of `CC(C)n1nc(N2CC(F)(F)C2)c2cnc(Nc3ccnc(-c4cnn(S(=O)(=O)C5CC5)c4)n3)cc21` [Example 154, N-(2-(1-(Cyclopropylsulfonyl)-1H-pyrazol-4-yl)pyrimidin-4-yl)-3-(3,3-difluoroazetidin-1-yl)-1-isopropyl-1H-pyrazolo[4,3-c]pyridin-6-amine], the EC50 in test [1] is 82 nM; in test [2] it was 312 nM. Also, the figures for the Ki on EGFR T790M L858R and on EGFR del746-750 T790M were 2.8 nM and 2.9 nM, respectively.

Regarding `CC(C)n1nc(N2CC(C#N)C2)c2cnc(Nc3ccnc(-c4cnn(S(=O)(=O)C5CC5)c4)n3)cc21` [Example 155, 1-(6-(2-(1-(Cyclopropylsulfonyl)-1H-pyrazol-4-yl)pyrimidin-4-ylamino)-1-isopropyl-1H-pyrazolo[4,3-c]pyridin-3-yl)azetidine-3-carbonitrile], the EC50 came to 28.9 nM in test [1] and 144 nM in test [2]. The Ki on EGFR T790M L858R was 1 nM; on EGFR del746-750 T790M it was 0.9 nM.

In the case of `CC(C)n1nc(N2CCC(C(=O)N(C)C)C2)c2cnc(Nc3ccnc(-c4cnn(S(=O)(=O)C5CC5)c4)n3)cc21` (centres unmarked) [Example 156, 1-(6-(2-(1-(Cyclopropylsulfonyl)-1H-pyrazol-4-yl)pyrimidin-4-ylamino)-1-isopropyl-1H-pyrazolo[4,3-c]pyridin-3-yl)N,N-dimethylpyrrolidine-3-carboxamide], the EC50 in test [1] is 39.2 nM; in test [2], 163 nM. In addition, the Ki at EGFR T790M L858R was 1.1 nM; on EGFR del746-750 T790M it was 0.8 nM.

Consider `CC(C)n1nc(N2CCC(C)(C(N)=O)C2)c2cnc(Nc3ccnc(N4CCC(C)(O)CC4)n3)cc21` (centres unmarked) [Example 157, 1-(6-(2-(4-Hydroxy-4-methylpiperidin-1-yl)pyrimidin-4-ylamino)-1-isopropyl-1H-pyrazolo[4,3-c]pyridin-3-yl)-3-methylpyrrolidine-3-carboxamide], for which the EC50 in test [1] turned out to be 1330 nM; in test [2], 2860 nM. Besides, the Ki at EGFR T790M L858R was 2.6 nM; at EGFR del746-750 T790M it was 4.9 nM.

For the compound `CC(C)n1nc(N2CC[C@@H](N)C2=O)c2cnc(Nc3ccnc(N4CCC(C)(O)CC4)n3)cc21` [Example 158, (R)-3-Amino-1-(6-(2-(4-hydroxy-4-methylpiperidin-1-yl)pyrimidin-4-ylamino)-1-isopropyl-1H-pyrazolo[4,3-c]pyridin-3-yl)pyrrolidin-2-one], the EC50 in test [1] worked out at 1300 nM; in test [2], 8120 nM. Also, the Ki came to 18.5 nM at EGFR T790M L858R and 50.9 nM on EGFR del746-750 T790M.

Turning to `CC(C)n1nc(N2CC[C@H](N)C2=O)c2cnc(Nc3ccnc(N4CCC(C)(O)CC4)n3)cc21` [Example 159, (S)-3-Amino-1-(6-(2-(4-hydroxy-4-methylpiperidin-1-yl)pyrimidin-4-ylamino)-1-isopropyl-1H-pyrazolo[4,3-c]pyridin-3-yl)pyrrolidin-2-one], the EC50 in test [1] was found to be 1100 nM; in test [2] it was 9730 nM. Further, the Ki is 11.6 nM on EGFR T790M L858R and 28.5 nM on EGFR del746-750 T790M.

On to `CC(C)n1nc(N2CC3(C2)CS(=O)(=O)C3)c2cnc(Nc3ccnc(N4CCC(C)(O)CC4)n3)cc21` [Example 160, 6-(6-((2-(4-Hydroxy-4-methylpiperidin-1-yl)pyrimidin-4-yl)amino)-1-isopropyl-1H-pyrazolo[4,3-c]pyridin-3-yl)-2-thia-6-azaspiro[3.3]heptane 2,2-dioxide], for which the EC50 in test [1] is 962 nM; in test [2] it was 3090 nM. The Ki stood at 5.1 nM at EGFR T790M L858R and 9.7 nM on EGFR del746-750 T790M.

With `CNC(=O)C1CN(c2nn(C(C)C)c3cc(Nc4ccnc(-c5cnn(S(=O)(=O)C6CC6)c5)n4)ncc23)C1` [Example 161, 1-(6-(2-(1-(Cyclopropylsulfonyl)-1H-pyrazol-4-yl)pyrimidin-4-ylamino)-1-isopropyl-1H-pyrazolo[4,3-c]pyridin-3-yl)-N-methylazetidine-3-carboxamide], the EC50 in test [1] was 54.3 nM; in test [2], 650 nM. Also, the Ki at EGFR T790M L858R was 0.7 nM; on EGFR del746-750 T790M, 0.6 nM.

Turning to `CCNC(=O)C1CN(c2nn(C(C)C)c3cc(Nc4ccnc(-c5cnn(S(=O)(=O)C6CC6)c5)n4)ncc23)C1` [Example 162, 1-(6-(2-(1-(Cyclopropylsulfonyl)-1H-pyrazol-4-yl)pyrimidin-4-ylamino)-1-isopropyl-1H-pyrazolo[4,3-c]pyridin-3-yl)-N-ethylazetidine-3-carboxamide], the figures for the EC50 in test [1] and in test [2] were 56.6 nM and 484 nM, respectively. For the same compound, the Ki on EGFR T790M L858R came to 1 nM; at EGFR del746-750 T790M, 0.8 nM.

Consider `CC(C)n1nc(N2CC(C(=O)N3CCOCC3)C2)c2cnc(Nc3ccnc(-c4cnn(S(=O)(=O)C5CC5)c4)n3)cc21` [Example 163, (1-(6-(2-(1-(Cyclopropylsulfonyl)-1H-pyrazol-4-yl)pyrimidin-4-ylamino)-1-isopropyl-1H-pyrazolo[4,3-c]pyridin-3-yl)azetidin-3-yl)(morpholino)methanone], for which the EC50 turned out to be 26.5 nM in test [1] and 344 nM in test [2]. Besides, the Ki at EGFR T790M L858R and on EGFR del746-750 T790M was 0.9 nM in each case.

On to `CC(C)n1nc(N2CC(C(=O)N3CC[C@@H](O)C3)C2)c2cnc(Nc3ccnc(-c4cnn(S(=O)(=O)C5CC5)c4)n3)cc21` [Example 164, (R)-(1-(6-(2-(1-(Cyclopropylsulfonyl)-1H-pyrazol-4-yl)pyrimidin-4-ylamino)-1-isopropyl-1H-pyrazolo[4,3-c]pyridin-3-yl)azetidin-3-yl)(3-hydroxypyrrolidin-1-yl)methanone], for which the figures for the EC50 in test [1] and in test [2] were 430 nM and 2520 nM, respectively. For the same compound, the Ki at EGFR T790M L858R amounted to 1.2 nM; at EGFR del746-750 T790M it was 1.1 nM.
